Drawing on patent US7531539B2, “Pyrrolotriazine kinase inhibitors” (Bristol-Myers Squibb Company, priority 2006, dated 2009), this text covers IC50 for twelve compounds.

The target of assay [1] is Casein Kinase 2 A2 kinase (Homo sapiens, UniProt P19784). The assay can be described thus: CK2A2 kinase assay (33P, TCA precipitation). The class given is biochemical. As for the experimental part:
(§1) Incubation mixtures employed for the Casein Kinase 2 A2 kinase assay contain Casein Kinase 2 A2 kinase, a synthetic peptide substrate, ATP, ATP-γ^33P and a Hepes buffer containing Mg^++, NaCl, DTT, and Brij-35. Reactions were incubated for 60 minutes at 30° C. and stopped by the addition of trichloroacetic acid (TCA) to a final concentration 8%. TCA precipitates were collected onto GF/C unifilter plates using a Filtermate universal harvester and the filters are quantitated using a TopCount 96/384-well liquid scintillation counter. Dose response curves were generated to determine the concentration required to inhibit 50% of kinase activity (IC^50). Compounds were dissolved at 10 mM in dimethyl sulfoxide (DMSO) and evaluated at ten concentrations, each in duplicate. The final concentration of DMSO in the assay is 1.7%. IC50 values were derived by non-linear regression.

The target in assay [2] is Casein Kinase 2 A1 kinase (Homo sapiens, UniProt P68400). The assay can be described thus: CK2A1 kinase assay (33P, TCA precipitation). The class given is biochemical. As for the experimental part: as §1, with “2 A1” for “2 A2”, “contain Casecin” for “contain Casein”, “ATP, ATP-γ-^33 P” for “ATP, ATP-γ^33P”, “containing Mg^2+,” for “containing Mg^++,”, “activity (IC50).” for “activity (IC^50).”
Sequence of Casein Kinase 2 A1 kinase (P68400 whole entry): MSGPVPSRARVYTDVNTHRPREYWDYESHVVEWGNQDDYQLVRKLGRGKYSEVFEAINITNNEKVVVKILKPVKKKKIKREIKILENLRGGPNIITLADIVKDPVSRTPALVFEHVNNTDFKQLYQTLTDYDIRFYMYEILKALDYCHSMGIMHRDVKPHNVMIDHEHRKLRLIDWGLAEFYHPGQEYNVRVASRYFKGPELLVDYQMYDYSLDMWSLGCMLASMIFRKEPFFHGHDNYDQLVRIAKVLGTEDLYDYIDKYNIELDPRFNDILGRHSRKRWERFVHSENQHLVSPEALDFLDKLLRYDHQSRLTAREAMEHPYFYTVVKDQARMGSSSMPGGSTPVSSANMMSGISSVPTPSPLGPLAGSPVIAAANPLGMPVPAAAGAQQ

Sequence of Casein Kinase 2 A2 kinase (P19784 whole entry): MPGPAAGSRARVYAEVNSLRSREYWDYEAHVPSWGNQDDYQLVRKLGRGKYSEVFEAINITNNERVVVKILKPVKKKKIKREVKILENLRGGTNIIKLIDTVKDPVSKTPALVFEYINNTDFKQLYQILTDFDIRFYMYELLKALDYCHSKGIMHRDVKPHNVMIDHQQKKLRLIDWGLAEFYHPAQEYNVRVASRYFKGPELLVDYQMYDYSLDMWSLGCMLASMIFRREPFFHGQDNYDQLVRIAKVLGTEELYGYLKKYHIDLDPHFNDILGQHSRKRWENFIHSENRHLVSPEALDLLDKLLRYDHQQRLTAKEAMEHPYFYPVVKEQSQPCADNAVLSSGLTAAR

On to `c1cncc(C2CCN(c3nc(Nc4cc(C5CC5)n[nH]4)c4cccn4n3)C2)c1` (stereo not drawn) [Example 181, N-(3-cyclopropyl-1H-pyrazol-5-yl)-2-(3-(pyridin-3-yl)pyrrolidin-1-yl)pyrrolo[1,2-f][1,2,4]triazin-4-amine], for which the results for the IC50 in assay [1] and in assay [2] were 6 nM and 84 nM, respectively.
The like results for `CC1C[C@@H]1c1cc(Nc2nc(N3CCC(c4cccnc4)C3)nn3cccc23)[nH]n1` (stereo partly drawn) [Example 182, N-(3-((1S,2S)-2-methylcyclopropyl)-1H-pyrazol-5-yl)-2-(3-(pyridin-3-yl)pyrrolidin-1-yl)pyrrolo[1,2-f][1,2,4]triazin-4-amine] were, in that order, 13 nM and 131 nM.
The matching figures for `c1ccc(C2CCN(c3nc(Nc4cc(C5CC5)n[nH]4)c4cccn4n3)C2)cc1` (stereo not drawn) [Example 184, N-(3-cyclopropyl-1H-pyrazol-5-yl)-2-(3-phenylpyrrolidin-1-yl)pyrrolo[1,2-f][1,2,4]triazin-4-amine]: 14 nM and 177 nM.
The matching figures for `Cc1cc(Nc2nc(N3CCC(c4ccccc4)C3)nn3cccc23)[nH]n1` (stereo not drawn) [Example 186, N-(5-methyl-1H-pyrazol-3-yl)-2-(3-phenylpyrrolidin-1-yl)pyrrolo[1,2-f][1,2,4]triazin-4-amine]: 39 nM and 294 nM.
With `c1ccc([C@H]2C[C@@H]2c2cc(Nc3nc(N4CCC(c5cccnc5)C4)nn4cccc34)[nH]n2)cc1` (stereo partly drawn) [Example 197, N-(3-((1S,2S)-2-phenylcyclopropyl)-1H-pyrazol-5-yl)-2-(3-(pyridin-3-yl)pyrrolidin-1-yl)pyrrolo[1,2-f][1,2,4]triazin-4-amine], the IC50 (as a rule, the midpoint of a concentration-inhibition curve) amounted to 1020 nM in assay [1] and 11300 nM in assay [2].
The matching figures for `Cc1cc(Nc2nc(N3CCC(CC(=O)O)C3)nn3cccc23)[nH]n1` (stereo not drawn) [Example 199, 2-(1-(4-(3-methyl-1H-pyrazol-5-ylamino)pyrrolo[1,2-f][1,2,4]triazin-2-yl)pyrrolidin-3-yl)acetic acid]: 379 nM and 2350 nM.
The like results for `Cc1cc(Nc2nc(N3Cc4ccccc4C3)nn3cccc23)[nH]n1` [Example 201, 2-(isoindolin-2-yl)-N-(3-methyl-1,2-f][1,2,4]triazin-4-amine] were, in that order, 25 nM and 159 nM.
The like results for `Cc1cc(Nc2nc(N3CCC(c4ccncc4)CC3)nn3cccc23)[nH]n1` [Example 203, N-(3-methyl-1H-pyrazol-5-yl)-2-(4-(pyridin-4-yl)piperidin-1-yl)pyrrolo[1,2-f][1,2,4]triazin-4-amine] were, in that order, 56 nM and 243 nM.
As for `Cc1cc(Nc2nc(N3CCCC(c4ccccc4)C3)nn3cccc23)[nH]n1` (stereo not drawn) [Example 204, N-(3-methyl-1H-pyrazol-5-yl)-2-(3-phenylpiperidin-1-yl)pyrrolo[1,2-f][1,2,4]triazin-4-amine], the half-inhibitory concentration (IC50) in assay [1] stood at 228 nM; in assay [2], 1860 nM.
Consider `Cc1cc(Nc2nc(N3CCCC3c3cccnc3)nn3cccc23)[nH]n1` (stereo not drawn) [Example 209, N-(3-methyl-1H-pyrazol-5-yl)-2-(2-(pyridin-3-yl)pyrrolidin-1-yl)pyrrolo[1,2-f][1,2,4]triazin-4-amine], for which the results for the half-maximal inhibitory concentration (IC50) in assay [1] and in assay [2] were 1100 nM and 6070 nM, respectively.
The like results for `COc1ccc(C2CCN(c3nc(Nc4cc(C)n[nH]4)c4cccn4n3)C2)cn1` (stereo not drawn) [Example 212, (3-(6-Methoxypyridin-3-yl)pyrrolidin-1-yl)-N-(3-methyl-1H-pyrazol-5-yl)pyrrolo[1,2-f][1,2,4]triazin-4-amine] were, in that order, 99 nM and 1380 nM.
The like results for `COc1ncccc1C1CCN(c2nc(Nc3cc(C)n[nH]3)c3cccn3n2)C1` (stereo not drawn) [Example 213, 2-(3-(2-methoxypyridin-3-yl)pyrrolidin-1-yl)-N-(3-methyl-1H-pyrazol-5-yl)pyrrolo[1,2-f][1,2,4]triazin-4-amine] were, in that order, 43 nM and 349 nM.
